Measured values reported in patent US5202315A, “Cephalosporin compounds” (Lucky, Ltd., priority 1989, dated 1993).
≈ marks a conversion by molar mass, not a printed value.

Columns and labels:
Type in all cases: cell-based
[1] = test system: Citrobacter freundii ATCC 8090; assay: Antibacterial activity, MIC; settings: ATCC8090, ATCC 8090, agar two-fold dilution, 37° C., 20 hours, read-out: MIC
Outline: (§1)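 Values reflect agar dilution testing: Mueller-Hinton medium, two-fold compound series, 2 μl inoculum of 10^7 CFU/ml, 20 h incubation at 37 °C.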

[2] = test system: Enterobacter cloacae ATCC 27508; assay: Antibacterial activity, MIC; settings: ATCC27508, ATCC 27508, agar two-fold dilution, 37° C., 20 hours, read-out: MIC
Outline: as §1

[3] = test system: Escherichia coli ATCC 10536; assay: Antibacterial activity, MIC; settings: ATCC10536, agar two-fold dilution, 37° C., 20 hours
Outline: as §1

[4] = test system: Escherichia coli; assay: Antibacterial activity against clinically isolated strains, MIC; settings: 38 clinical isolates, broth microdilution test
[5] = test system: Pseudomonas; assay: Antibacterial activity; settings: statement in words
[6] = test system: Streptococcus faecalis ATCC 29212; assay: Antibacterial activity, MIC; settings: Enterococcus faecalis, ATCC29212; ATCC 29212; agar two-fold dilution, 37° C., 20 hours; read-out: MIC
Outline: as §1

Row | SMILES | MIC [1] [µg/mL] | MIC [2] [µg/mL] | MIC [3] [µg/mL] | MIC50 [4] [µg/mL] | MIC90 [4] [µg/mL] | antibacterial activities, especially against Pseudomonas [5] | MIC [6] [µg/mL]
1 | C[n+]1c(N)cc(N)nc1SCC1=C(C(=O)[O-])N2C(=O)C(NC(=O)/C(=N\OC(C)(C)C(=O)O)c3csc(N)n3)[C@H]2SC1 (some centres unmarked) [Compound I-1, 7-[(Z)-2-(2-aminothiazol-4-yl)-2-(2-carboxyprop-2-oxyimino)acetamido]-3-(4,6-diamino-1-methylpyrimidinium-2-yl) thiomethyl-3-cephem-4-carboxylate] | 0.063 (≈ 0.101 µM) | 0.016 (≈ 0.0257 µM) | 0.063 (≈ 0.101 µM) | 0.063 (≈ 0.101 µM) | 0.13 (≈ 0.208 µM) | excellent | –
2 | CC[n+]1c(N)cc(N)nc1SCC1=C(C(=O)[O-])N2C(=O)C(NC(=O)/C(=N\OC(C)(C)C(=O)O)c3csc(N)n3)C2SC1 (centres unmarked) [Compound I-2] | 0.13 (≈ 0.204 µM) | 0.031 (≈ 0.0486 µM) | 0.063 (≈ 0.0988 µM) | 0.063 (≈ 0.0988 µM) | 0.13 (≈ 0.204 µM) | – | –
3 | CC(O/N=C(\C(=O)NC1C(=O)N2C(C(=O)[O-])=C(CSc3nc(N)cc(N)[n+]3C)CSC12)c1csc(N)n1)C(=O)O (centres unmarked) [Compound I-4] | 0.063 (≈ 0.103 µM) | 0.016 (≈ 0.0262 µM) | 0.063 (≈ 0.103 µM) | 0.031 (≈ 0.0508 µM) | 0.063 (≈ 0.103 µM) | – | –
4 | CC[n+]1c(N)cc(N)nc1SCC1=C(C(=O)[O-])N2C(=O)C(NC(=O)/C(=N\OC(C)C(=O)O)c3csc(N)n3)C2SC1 (centres unmarked) [Compound I-5] | 0.063 (≈ 0.101 µM) | 0.016 (≈ 0.0257 µM) | 0.063 (≈ 0.101 µM) | 0.063 (≈ 0.101 µM) | 0.13 (≈ 0.208 µM) | – | –
5 | C[n+]1c(N)cc(N)nc1SCC1=C(C(=O)[O-])N2C(=O)C(NC(=O)/C(=N\OCC(=O)O)c3csc(N)n3)C2SC1 (centres unmarked) [Compound I-7] | 0.031 (≈ 0.052 µM) | ≤ 0.008 | 0.016 (≈ 0.0269 µM) | 0.016 (≈ 0.0269 µM) | 0.063 (≈ 0.106 µM) | – | > 128
6 | CCO/N=C(\C(=O)NC1C(=O)N2C(C(=O)[O-])=C(CSc3nc(N)cc(N)[n+]3N)CSC12)c1csc(N)n1 (centres unmarked) [Compound I-16] | 0.063 (≈ 0.111 µM) | 0.016 (≈ 0.0282 µM) | 0.063 (≈ 0.111 µM) | 0.13 (≈ 0.229 µM) | 0.25 (≈ 0.441 µM) | – | 32 (≈ 56.5 µM)
7 | Cc1c(N)nc(SCC2=C(C(=O)[O-])N3C(=O)C(NC(=O)/C(=N\OC(C)(C)C(=O)O)c4csc(N)n4)C3SC2)[n+](C)c1N (centres unmarked) [Compound I-30] | 0.13 (≈ 0.204 µM) | 0.063 (≈ 0.0988 µM) | 0.063 (≈ 0.0988 µM) | 0.13 (≈ 0.204 µM) | 0.25 (≈ 0.392 µM) | – | –
8 | CCC[n+]1c(N)cc(N)nc1SCC1=C(C(=O)[O-])N2C(=O)C(NC(=O)/C(=N\OC(C)C(=O)O)c3csc(N)n3)C2SC1 (centres unmarked) [Compound I-45] | 0.063 (≈ 0.0988 µM) | 0.016 (≈ 0.0251 µM) | 0.063 (≈ 0.0988 µM) | 0.13 (≈ 0.204 µM) | 0.13 (≈ 0.204 µM) | – | > 128
